From ChEMBL document CHEMBL2417513, “Selective activity of 2,4-diaryl-1,2,3,4-tetrahydroquinolines on Trypanosoma cruzi epimastigotes and amastigotes expressing β-galactosidase” (Bioorg Med Chem Lett, 2013)

Experiments:
[1] = tested on: Trypanosoma cruzi; assay: Antiparasitic activity against epimastigotes of Trypanosoma cruzi CL Brener expressing Escherichia coli lacZ gene […] assessed as parasite growth inhibition at 32 uM after 72 hrs by colorimetric assay; type: functional; design: scale not given: the % may be the effect or the level left
[2] = Cytotoxicity against mouse NCTC-929 cells after 48 hrs by resazurin based fluorescence assay; type: cell-based; settings: for LC50: nctc-929, 48 h; for CC50 at 48 h: NCTC-929 cells, read-out: LC50
[3] = tested on: Trypanosoma cruzi; assay: Antiparasitic activity against epimastigotes of Trypanosoma cruzi CL Brener expressing Escherichia coli lacZ gene […] assessed as parasite growth inhibition after 72 hrs by colorimetric assay; type: functional, organism-based
[4] = Cytotoxicity against mouse NCTC-929 cells at 256 uM after 48 hrs by resazurin based fluorescence assay; type: cell-based; settings: nctc-929, 48 h
[5] = Selectivity index, ratio of LC50 for mouse NCTC-929 cells to IC50 for epimastigotes of Trypanosoma cruzi CL Brener; type: toxicity, cell-based; settings: read-out: Ratio LC50/IC50
[6] = tested on: Trypanosoma cruzi; assay: Antiparasitic activity against amastigotes of Trypanosoma cruzi CL Brener expressing Escherichia coli lacZ gene infected in mouse NCTC-929 cells assessed as parasite growth inhibition at 32 uM after 7 days by colorimetric assay; type: functional; design: scale not given: the % may be the effect or the level left
[7] = tested on: Trypanosoma cruzi; assay: Antiparasitic activity against amastigotes of Trypanosoma cruzi CL Brener expressing Escherichia coli lacZ gene infected in mouse NCTC-929 cells assessed as parasite growth inhibition at 16 uM after 7 days by colorimetric assay; type: functional; design: scale not given: the % may be the effect or the level left
[8] = Selectivity index, ratio of LC50 for mouse NCTC-929 cells to IC50 for amastigotes of Trypanosoma cruzi CL Brener; type: toxicity, cell-based; settings: read-out: Ratio LC50/IC50
[9] = tested on: Trypanosoma cruzi; assay: Antiparasitic activity against amastigotes of Trypanosoma cruzi CL Brener expressing Escherichia coli lacZ gene infected in mouse NCTC-929 cells assessed as parasite growth inhibition at 2 uM after 7 days by colorimetric assay; type: functional; design: scale not given: the % may be the effect or the level left
[10] = tested on: Trypanosoma cruzi; assay: Antiparasitic activity against amastigotes of Trypanosoma cruzi CL Brener expressing Escherichia coli lacZ gene infected in mouse NCTC-929 cells assessed as parasite growth inhibition at 4 uM after 7 days by colorimetric assay; type: functional; design: scale not given: the % may be the effect or the level left
[11] = tested on: Trypanosoma cruzi; assay: Antiparasitic activity against amastigotes of Trypanosoma cruzi CL Brener expressing Escherichia coli lacZ gene infected in mouse NCTC-929 cells assessed as parasite growth inhibition at 8 uM after 7 days by colorimetric assay; type: functional; design: scale not given: the % may be the effect or the level left
[12] = tested on: Trypanosoma cruzi; assay: Antiparasitic activity against amastigotes of Trypanosoma cruzi CL Brener expressing Escherichia coli lacZ gene infected in mouse NCTC-929 cells assessed as parasite growth inhibition after 7 days by colorimetric assay; type: functional, organism-based; settings: NCTC-929, 168 h
[13] = tested on: Trypanosoma cruzi; assay: Antiparasitic activity against amastigotes of Trypanosoma cruzi CL Brener expressing Escherichia coli lacZ gene infected in mouse NCTC-929 cells assessed as parasite growth inhibition at 0.5 uM after 7 days by colorimetric assay; type: functional; design: scale not given: the % may be the effect or the level left
[14] = tested on: Trypanosoma cruzi; assay: Antiparasitic activity against amastigotes of Trypanosoma cruzi CL Brener expressing Escherichia coli lacZ gene infected in mouse NCTC-929 cells assessed as parasite growth inhibition at 1 uM after 7 days by colorimetric assay; type: functional; design: scale not given: the % may be the effect or the level left

Row | SMILES | Activity [1] [%] | LC50 [2] | IC50 [3] [µM] | Activity [4] | selectivity ratio [5] | CC50 at 48 h [2] [µM] | Activity [6] [%] | Activity [7] [%] | selectivity ratio [8] | Activity [9] [%] | Activity [10] [%] | Activity [11] [%] | IC50 [12] [µM] | Activity [13] [%] | Activity [14] [%]
1 | COc1ccc([C@@H]2c3ccc([N+](=O)[O-])cc3N[C@H](c3ccccc3)[C@H]2C)cc1 | 83.67 | ND(Insoluble) | < 8 | 8.43% | – | – | – | – | – | – | – | – | – | – | –
2 | COc1ccc([C@@H]2c3cc(N)ccc3N[C@H](c3ccccc3)[C@H]2C)cc1 | 97.06 | – | < 8 | 85.85% | > 1.19 | 9.56 | – | – | – | – | – | – | – | – | –
3 | COc1ccc([C@@H]2c3cccc(N)c3N[C@H](c3ccccc3)[C@H]2C)cc1 | 79.95 | ND(Insoluble) | < 8 | 66.33% | – | – | – | – | – | – | – | – | – | – | –
4 | COc1ccc([C@@H]2c3ccccc3N(Cc3ccccc3)C[C@H]2C)cc1 | 14.08 | ND(Insoluble) | – | 42.15% | – | – | – | – | – | – | – | – | – | – | –
5 | COc1ccc([C@@H]2c3cc(OC)ccc3N(Cc3ccccc3)C[C@H]2C)cc1 | 88.64 | – | 7.67 | 25.02% | > 33.4 | > 256 | 100 | 100 | > 59.9 | 25.86 | 46.33 | 100 | 4.27 | – | –
6 | COc1ccc([C@@H]2c3cc(Cl)ccc3N(Cc3ccccc3)C[C@H]2C)cc1 | 100 | – | 6.39 | ND(Insoluble) | 3.69 | 23.6 | – | – | – | – | – | – | – | – | –
7 | COc1cc([C@@H]2c3cccc([N+](=O)[O-])c3N[C@H](c3ccccc3)[C@H]2C)ccc1O | 86.78 | – | < 8 | 84.75% | – | < 8 | – | – | – | – | – | – | – | – | –
8 | COc1cc([C@@H]2c3ccccc3N[C@H](c3ccccc3)[C@H]2C)ccc1O | 86.23 | – | < 8 | 84.12% | > 1.63 | 13 | – | – | – | – | – | – | – | – | –
9 | COc1cc([C@@H]2c3cccc(C#N)c3N[C@H](c3ccccc3)[C@H]2C)ccc1O | 95.56 | – | 8.29 | 86.23% | 0.93 | 7.75 | – | – | – | – | – | – | – | – | –
10 | COc1cc([C@@H]2c3cccc([N+](=O)[O-])c3N[C@H](c3ccc(O)cc3)[C@H]2C)ccc1O | 99.73 | – | < 8 | 85.46% | > 1.79 | 14.4 | – | – | – | – | – | – | – | – | –
11 | COc1cc([C@@H]2c3cccc(N)c3N[C@H](c3ccccc3)[C@H]2C)ccc1O | 98.7 | – | < 8 | 86.9% | – | < 8 | – | – | – | – | – | – | – | – | –
12 | COc1cc([C@@H]2c3cccc(C#N)c3N[C@H](c3ccc(O)cc3)[C@H]2C)ccc1O | 98.75 | – | < 8 | 85.83% | 1.59 | 12.8 | – | – | – | – | – | – | – | – | –
13 | COc1cc([C@@H]2c3cccc([N+](=O)[O-])c3N[C@H](c3ccc([N+](=O)[O-])cc3)[C@H]2C)ccc1O | 92.82 | – | < 8 | 87.71% | – | < 8 | – | – | – | – | – | – | – | – | –
14 | COc1cc([C@@H]2c3cccc([N+](=O)[O-])c3N[C@H](c3ccccc3[N+](=O)[O-])[C@H]2C)ccc1O | 82.19 | – | – | ND(Insoluble) | – | 15.9 | – | – | – | – | – | – | – | – | –
15 | COc1cc([C@@H]2c3cccc(C#N)c3N[C@H](c3ccc([N+](=O)[O-])cc3)[C@H]2C)ccc1O | 66.81 | – | 4.38 | 48.76% | 48.6 | 213 | – | – | 27.8 | – | 33.77 | 51.5 | 7.66 | – | –
16 | COc1ccc([C@@H]2c3ccccc3N[C@H](c3ccccc3)[C@H]2C)cc1 | 95.98 | – | 5.94 | 43.05% | > 43.1 | > 256 | 100 | 99.12 | > 36 | – | – | 52.21 | 7.1 | – | –
17 | CCc1ccc2c(c1)[C@@H](c1ccc(OC)cc1)[C@H](C)[C@@H](c1ccccc1)N2 | 95.85 | – | 3.6 | 0% | > 71.1 | > 256 | 63.72 | 47.35 | > 35.9 | – | 19.11 | 58.63 | 7.13 | – | –
18 | COc1ccc([C@@H]2c3cc(OC)ccc3N[C@H](c3ccccc3)[C@H]2C)cc1 | 53.99 | – | < 8 | 0% | > 32 | > 256 | – | 60.71 | > 32 | – | – | 58.12 | < 8 | – | –
19 | COc1ccc([C@@H]2c3cc([N+](=O)[O-])ccc3N[C@H](c3ccccc3)[C@H]2C)cc1 | 76.03 | – | < 8 | ND(Insoluble) | > 2 | 16 | – | – | – | – | – | – | – | – | –
20 | COc1ccc([C@@H]2c3cc(Cl)ccc3N[C@H](c3ccccc3)[C@H]2C)cc1 | 88.62 | ND(Insoluble) | 7.86 | 11.72% | – | – | – | – | – | – | – | – | – | – | –
21 | COc1ccc([C@@H]2c3cccc([N+](=O)[O-])c3N[C@H](c3ccccc3)[C@H]2C)cc1 | 87.22 | – | – | ND(Insoluble) | – | 28.4 | – | – | – | – | – | – | – | – | –
22 | COc1ccc([C@@H]2c3c(cccc3[N+](=O)[O-])N[C@H](c3ccccc3)[C@H]2C)cc1 | 78.69 | – | < 8 | ND(Insoluble) | > 3.45 | 27.6 | – | – | – | – | – | – | – | – | –
23 | O=C(Cn1ccnc1[N+](=O)[O-])NCc1ccccc1 [BENZNIDAZOLE] | 66.24 | – | 27.1 | 17.38% | > 9.44 | > 256 | 100 | 100 | > 320 | 64.37 | 74.71 | 96.63 | 0.8 | 41.64 | 55.64
